The values that follow come from publication doi:10.1101/2025.09.18.676322v1 (bioRxiv, 2025).

The nature of data set [1]: Stability in human plasma. Type of data set: in vitro ADME.
Data set [2] is described as follows: Stability in simulated gastric fluid. It counts as in vitro ADME. Particulars: pH 1.6.
The nature of another data set: Caco-2 cell permeability. It counts as in vitro ADME. (In general: Passage across Caco-2 layers is used to estimate intestinal permeability.)
Data set [3] in a line: Stability in simulated intestinal fluid. It counts as in vitro ADME. Particulars: pH 6.5.
The nature of data set [4]: Stability in rat liver microsomes. Type of data set: in vitro ADME.
The next data set has as its target T1, TREM2 (Homo sapiens, UniProt Q9NZC2).
T1 sequence (Q9NZC2 19-174 limits assumed): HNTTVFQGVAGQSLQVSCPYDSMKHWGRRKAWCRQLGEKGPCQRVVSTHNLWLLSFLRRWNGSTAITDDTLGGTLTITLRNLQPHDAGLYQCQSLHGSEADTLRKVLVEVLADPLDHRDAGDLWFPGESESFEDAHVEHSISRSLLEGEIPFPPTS
Description: Spectral shift assay of TREM2 binding. Particulars: for TREM2 binding in spectral shift analysis (in words): labeled TREM2 10 nM, PBST pH 7.4, 10 min at room temperature.

Data set [5] is described as follows: LogD7.4 by miniaturized shake-flask procedure. It counts as physicochemical. Particulars: miniaturized shake-flask procedure at pH 7.4.
The conditions of data set [6]: reference compound of the assay; cited from earlier work.
The conditions of data set [7]: reference compound of the assay; cited from earlier work. This is another data set of the same source.

Residues, ends and D or L forms follow the SMILES beside them.

Usually fraction remaining stands for the share of the starting amount still present when the sample was taken. A low value points to more turnover. The term half-life denotes the time needed for the level to fall by half in the phase considered. A low value points to rapid decline. The term Papp A→B denotes the apparent permeability from the apical to the basolateral side of a cell layer. Low values mean slow passage, high ones fast passage. Broadly, the Papp B→A is the apparent permeability from the basolateral to the apical side of a cell layer. For the compound `CC(C)[C@@H]1NC(=O)CNC(=O)[C@H](C)NC(=O)[C@H](CO)NC(=O)[C@H](C(C)C)NC(=O)[C@H](CO)NC(=O)[C@H](C(C)C)NC(=O)[C@H](C)NC(=O)CNC(=O)[C@H](CC(=O)O)NC(=O)[C@H](CCCCN)NC(=O)[C@H](CCC(=O)O)NC(=O)[C@H]([C@@H](C)O)NC(=O)[C@H]([C@@H](C)O)NC1=O` [TP4] (cyclo(AGVTTEKDGAVSVS); ring closure inferred), in data set [1], the amount remaining at 1 h came to 83.1%. Further, the half-life in data set [2] is 55.8 min; in [3] it was 349 min; in [4] it was 236 min. The compound further came in with a Papp A→B in the data set “Caco-2 cell permeability” of 1.32 ×10⁻⁶ cm/s. This compound registered a Papp B→A in “Caco-2 cell permeability” of 2.47 ×10⁻⁶ cm/s. At TREM2, the “TREM2 binding in spectral shift analysis (in words)” value was “measurable responses”. The “equilibrium dissociation constant (Kd), in words” value on TREM2 (summary statement in the introduction, assay not named) is recorded as “sub-millimolar range”. Besides, the LogD7.4 in data set [5] stood at 1.03.

For `CC(C)[N+](C)(CCOC(=O)C1c2ccccc2Oc2ccccc21)C(C)C` [propantheline], the “Human plasma stability, t1/2” value in data set [6] is on record as 2.6 min.

As for cyclo(LPGRLVSLPDGRHLC) [TP3], the “TREM2 binding in spectral shift analysis (in words)” value on TREM2 is reported as “did not exhibit detectable binding”.

Consider cyclo(GNSVNVETGARL) [TP1], for which the “TREM2 binding in spectral shift analysis (in words)” value at TREM2 is on record as “measurable responses”.

With `CC[C@H]1OC(=O)[C@H](C)[C@@H](O[C@H]2C[C@@](C)(OC)[C@@H](O)[C@H](C)O2)[C@H](C)[C@@H](O[C@@H]2O[C@H](C)C[C@H](N(C)C)[C@H]2O)[C@](C)(O)C[C@@H](C)C(=O)[C@H](C)[C@@H](O)[C@]1(C)O` [erythromycin], the “Stability in intestinal simulated fluids, t1/2” value in data set [7] is on record as 453 min.

Consider cyclo(GSSVNVQTGEVL) [TP2], for which the “TREM2 binding in spectral shift analysis (in words)” value on TREM2 is listed as “measurable responses”.
